Measurements from patent US20260226037A1, “MICROTUBULE TARGETING AGENTS” (ARIEL SCIENTIFIC INNOVATIONS LTD., priority 2022, published 2026).
Like-named read-outs stand apart in the source and are kept apart here. Where a SMILES comes first, the peptide text is derived from it. [ ]: non-standard residue; d: D form. The star is where a group is joined. Dolaproine = CO[C@@H]([C@@H]1CCCN1)[C@@H](C)C(=O)O; Dil = CC[C@H](C)[C@H](NC)[C@@H](CC(=O)O)OC; X1 = C[C@@H](N*)[C@@H](O)c1ccccc1; NMeV = CN[C@H](C(=O)O)C(C)C

Tests used:
RPMI 8226 cells = assay: XTT cytotoxicity, RPMI 8226; format: cell-based; conditions: RPMI 8226, multiple myeloma, non-resistant, read-out: IC50
Procedure: (§1) The cytotoxic activity of the novel family was evaluated against various tumor cells, including myeloma cells, acute lymphoblastic leukemia cells, acute monocytic leukemia cells, chronic myelogenous leukemia cells, pancreatic cancer cells, breast cancer cells, uterine sarcoma cells, cervix adenocarcinoma cells, ovary cancer cells, melanoma cells, osteosarcoma cells, prostate cancer cells, lung cancer cells, neuroblastoma cells and colorectal adenocarcinoma cells by XTT assay.

RPMI-DOX40 cells = assay: XTT cytotoxicity, RPMI-DOX40; format: cell-based; conditions: for IC50: RPMI-DOX40, multiple myeloma, P-gp overexpression, read-out: IC50; for IC50 ratio between resistant and non-resistant cells: RPMI-DOX40 / RPMI 8226
Procedure: as §1

RPMI-LR5 cells = assay: XTT cytotoxicity, RPMI-LR5; format: cell-based; conditions: for IC50: RPMI-LR5, multiple myeloma, melphalan resistant, read-out: IC50; for IC50 ratio between resistant and non-resistant cells: RPMI-LR5 / RPMI 8226
Procedure: as §1

RPMI-MR20 cells = assay: XTT cytotoxicity, RPMI-MR20; format: cell-based; conditions: for IC50: RPMI-MR20, mitoxantrone resistant, read-out: IC50; for IC50 ratio between resistant and non-resistant cells: RPMI-MR20 / RPMI 8226
Procedure: as §1

MM1.S cells = assay: XTT cytotoxicity, MM1.S; format: cell-based; conditions: multiple myeloma, non-resistant, read-out: IC50
Procedure: as §1

MM1.R cells = assay: XTT cytotoxicity, MM1.R; format: cell-based; conditions: for IC50 ratio between resistant and non-resistant cells: MM1.R / MM1.S; for IC50: MM1.R, multiple myeloma, dexamethasone resistant, read-out: IC50
Procedure: as §1

NALM6 cells = assay: XTT cytotoxicity, NALM6; format: cell-based; conditions: NALM6, acute lymphoblastic leukemia, non-resistant, read-out: IC50
Procedure: as §1
(§2) Most tubulin-binding anticancer drugs currently used in the clinic are substrates for Pgp effux pump. […] The inventors tested the viability of NALM6 acute lymphoblastic leukemia cell line (ALL) and its corresponding doxorubicin resistant N6/ADR cell line that overexpress Pgp glycoprotein and has cross-resistance to vincristine.

N6/ADR cells = assay: XTT cytotoxicity, N6/ADR; format: cell-based; conditions: for IC50 ratio between resistant and non-resistant cells: N6/ADR / NALM6; for sensitivity to Pgp glycoprotein overexpression: N6/ADR vs NALM6 dose response; for IC50: N6/ADR, acute lymphoblastic leukemia, P-gp overexpression, read-out: IC50
Procedure: as §1, §2

MCF7 cells = assay: XTT cytotoxicity, MCF7; format: cell-based; conditions: Homo sapiens; MCF7, breast adenocarcinoma, non-resistant
Procedure: as §1

MCF7-VP cells = assay: XTT cytotoxicity, MCF7-VP; format: cell-based; conditions: for IC50: Homo sapiens, MCF7-VP, breast adenocarcinoma, MRP overexpression; for IC50 ratio between resistant and non-resistant cells: MCF7-VP / MCF7
Procedure: as §1

MES-SA cells = assay: XTT cytotoxicity, MES-SA; format: cell-based; conditions: poorly differentiated uterine sarcoma, non-resistant
Procedure: as §1

MES-SA/DX5 cells = assay: XTT cytotoxicity, MES-SA/DX5; format: cell-based; conditions: for IC50: MES-SA/DX5, uterine sarcoma, P-gp overexpression; for IC50 ratio between resistant and non-resistant cells: MES-SA/DX5 / MES-SA; for effectiveness in subline overexpressing PgP: MES-SA/DX5 vs MES-SA
Procedure: as §1

NCI-H69 cells = assay: XTT cytotoxicity, NCI-H69; format: cell-based; conditions: NCI-H69, small cell lung carcinoma, non-resistant
Procedure: as §1

NCI-H69 VCR/R cells = assay: XTT cytotoxicity, NCI-H69 VCR/R; format: cell-based; conditions: for IC50: NCI-H69 VCR/R, vincristine resistant; for IC50 ratio between resistant and non-resistant cells: NCI-H69 VCR/R / NCI-H69
Procedure: as §1

A2780 cells = assay: XTT cytotoxicity, A2780; format: cell-based; conditions: A2780, ovarian carcinoma, non-resistant
Procedure: as §1

A2780ADR cells = assay: XTT cytotoxicity, A2780ADR; format: cell-based; conditions: for IC50 ratio between resistant and non-resistant cells: A2780ADR / A2780; for IC50: A2780ADR, ovarian carcinoma, resistant
Procedure: as §1

purified tubulin = assay: Tubulin polymerization, cell-free assay; format: biochemical; conditions: tubulin 2.00 mg/mL; 1, 15 and 30 μM; 37° C., 100 min; vs vehicle
Procedure: The effect of the compounds on their ability to inhibit tubulin polymerization, was tested against a vehicle control by evaluating polymerization of purified tubulin in a cell-free assay where tubulin (2.00 mg/mL) was exposed to vehicle control or 1, 15 and 30 μM of the compounds (n=2). Polymerizations were tracked by an increase in fluorescence excitation wavelength is 340-360 nm and emission wavelength at 410-460 nm. Fluorescence was monitored at 37° C. every 30 sec for 100 min.

[1] = system: colchicine binding site on tubulin protein; assay: EBI competition assay, RPMI-8226 cells; format: cell-based; conditions: for prevention of covalent binding of EBI to the colchicine binding site: RPMI-8226 living cells
RPMI8226 cells = assay: Cell cycle distribution by flow cytometry; format: cell-based; conditions: 6 hours; IC50, IC50x2.5 and IC50x5 concentrations
Procedure: Cell cycle arrest is a shared consequence of MTAs treatment. The effects of cell cycle distribution were determined in RPMI8226 cells treated for 6 and 18 hours with a range of concentrations of the molecules. The cells were stained with propidium iodide and cell cycle distribution was measured using a cytoFLEX flow cytometer.

| SMILES | IC50 (RPMI 8226 cells; Homo sapiens) [µM] | IC50 (RPMI-DOX40 cells) [µM] | IC50 ratio between resistant and non-resistant cells (RPMI-DOX40 cells) | IC50 (RPMI-LR5 cells) [µM] | IC50 ratio between resistant and non-resistant cells (RPMI-LR5 cells) | IC50 (RPMI-MR20 cells) [µM] | IC50 ratio between resistant and non-resistant cells (RPMI-MR20 cells) | IC50 (MM1.S cells; Homo sapiens) [µM] | IC50 ratio between resistant and non-resistant cells (MM1.R cells) | IC50 (MM1.R cells; MM.1R) [µM] | IC50 (NALM6 cells; Homo sapiens, NALM-6) [µM] | IC50 ratio between resistant and non-resistant cells (N6/ADR cells) | IC50 (N6/ADR cells) [µM] | IC50 (MCF7 cells) [µM] | IC50 (MCF7-VP cells) [µM] | IC50 ratio between resistant and non-resistant cells (MCF7-VP cells) | IC50 (MES-SA cells; Homo sapiens) [µM] | IC50 (MES-SA/DX5 cells; Homo sapiens) [µM] | IC50 ratio between resistant and non-resistant cells (MES-SA/DX5 cells) | rate of tubulin polymerization (purified tubulin) | other results |
| --- | --- | --- | --- | --- | --- | --- | --- | --- | --- | --- | --- | --- | --- | --- | --- | --- | --- | --- | --- | --- | --- |
| CC[C@]1(O)C[C@H]2CN(CCc3c([nH]c4ccccc34)[C@@](C(=O)OC)(c3cc4c(cc3OC)N(C=O)[C@H]3[C@@](O)(C(=O)OC)[C@H](OC(C)=O)[C@]5(CC)C=CCN6CC[C@]43[C@@H]65)C2)C1 [Vincristine, reference compound] | 0.0019 | > 0.01 | >5.263 | > 0.004 | >2.105 | 0.0003 | 0.158 | 0.0016 | 1.063 | 0.0017 | 0.0011 | 10.909 | 0.012 | 0.078 | 0.22 | 2.821 | 0.999 | 3.68 | 3.684 |  | sensitivity to Pgp glycoprotein overexpression (N6/ADR cells): sensitive to PgP; effectiveness in subline overexpressing PgP (MES-SA/DX5 cells): less effective in the subline overexpressing PgP; IC50 (NCI-H69 cells; Homo sapiens): 0.024 µM; IC50 (NCI-H69 VCR/R cells; Homo sapiens): > 1 µM; IC50 ratio between resistant and non-resistant cells (NCI-H69 VCR/R cells): >41.667; resistance of cells to treatment (NCI-H69 VCR/R cells; NCI-H69 VCR/R lung carcinoma cells): resistant to vincristine; IC50 (A2780 cells; Homo sapiens): 0.003 µM; IC50 ratio between resistant and non-resistant cells (A2780ADR cells): 77.000; resistance of cells to treatment (A2780ADR cells; A2780ADR ovary carcinoma cells): resistant to vincristine; IC50 (A2780ADR cells; A2780 ADR): 0.231 µM |
| CCCCCOC(=O)c1[nH]c2c(c1C)C(O)CC(c1ncco1)C2 (centres unmarked) [SMS108, pentyl-4-hydroxy-3-methyl-6-(oxazol-2-yl)-4,5,6,7-tetrahydro-1H-indole-2-carboxylate] | 0.516 | 0.498 | 0.965 | 0.427 | 0.828 | 0.388 | 0.752 | 0.735 | 1.633 | 1.2 | 0.345 | 0.957 | 0.33 | 7.12 | 5.9 | 0.828 | 0.7 | 0.49 | 0.700 | inhibited the rate of tubulin polymerization in a concentration-dependent manner | prevention of covalent binding of EBI to the colchicine binding site [1]: did not prevent the covalent binding of EBI to the colchicine binding site; cell cycle arrest (RPMI8226 cells): cell cycle arrest in G2M phase |
| Cc1c(C(=O)OCCCCO)[nH]c2c1C(=O)CC(c1ncco1)C2 (centres unmarked) [SMS096, 4-hydroxybutyl 3-methyl-6-(oxazol-2-yl)-4-oxo-4,5,6,7-tetrahydro-1H-indole-2-carboxylate] | 1.09 | 1.18 | 1.081 | 1.13 | 1.031 | > 1.8 | >1.647 | 0.748 | 1.447 | 1.08 | 0.624 | 0.087 | 0.054 | 7.84 | 5.74 | 0.732 | 1.24 | 1.43 | 1.153 | inhibited the rate of tubulin polymerization in a concentration-dependent manner | relative affinity for the colchicine binding site ([1]; RPMI-8226 cells, EBI competition): higher affinity than SMS001, SMS182, SMS088 and SMS229; prevention of covalent binding of EBI to the colchicine binding site [1]: prevented the covalent binding of EBI to the colchicine binding site; cell cycle arrest (RPMI8226 cells): cell cycle arrest in G2M phase |
| CC[C@H](C)[C@@H]([C@@H](CC(=O)N1CCC[C@H]1[C@H](OC)[C@@H](C)C(=O)N[C@H](C)[C@@H](O)c1ccccc1)OC)N(C)C(=O)[C@@H](NC(=O)[C@@H](NC)C(C)C)C(C)C [MMAE, reference compound] (H-[NMeV]V[Dil][Dolaproine]-X1) |  | > 0.015 | >6.000 | > 0.015 | >6.000 |  |  |  |  |  |  | 2.667 | 0.0008 |  |  |  |  |  | 165.037 |  | IC50 (RPMI 8226 cells): < 0.0025 µM; IC50 (MM1.S cells): < 0.0025 µM; IC50 (MM1.R cells): < 0.0025 µM; IC50 (NALM6 cells): 0.0003 µM; sensitivity to Pgp glycoprotein overexpression (N6/ADR cells): sensitive to PgP; IC50 (MES-SA cells): 0.016 µM; IC50 (MES-SA/DX5 cells): 2.74 µM; effectiveness in subline overexpressing PgP (MES-SA/DX5 cells): less effective in the subline overexpressing PgP; IC50 (NCI-H69 cells): 0.003 µM; IC50 ratio between resistant and non-resistant cells (NCI-H69 VCR/R cells): 0.667; IC50 (NCI-H69 VCR/R cells): 0.002 µM; IC50 (A2780 cells): 0.0008 µM; IC50 ratio between resistant and non-resistant cells (A2780ADR cells): 31.250; IC50 (A2780ADR cells): 0.025 µM |
| Cc1c(C(=O)OCCCCO)oc2c1C(=O)CC(c1ncco1)C2 (centres unmarked) [SMS229, 4-hydroxybutyl-3-methyl-6-(oxazol-2-yl)-4-oxo-4,5,6,7-tetrahydrobenzofuran-2-carboxylate] | 0.808 | 0.933 | 1.155 | 0.958 | 1.186 | 1.55 | 1.916 | 2.05 | >0.779 | > 1.6 | 0.59 | 1.136 | 0.67 | 33.3 | 12 | 0.360 | 4.56 | 3.19 | 0.700 | inhibited the rate of tubulin polymerization in a concentration-dependent manner | prevention of covalent binding of EBI to the colchicine binding site [1]: prevented the covalent binding of EBI to the colchicine binding site |
